The target of this assay is PPAR-alpha (Mesocricetus auratus). In words: Effective concentration against hamster PPAR-alpha in Gal4 transactivation assay.
For the molecule `CCC1(C(=O)O)Cc2cc(OCCCOc3ccc(C(C)(C)C)cc3Cl)ccc2O1` (centres undefined) [5-[3-(4-tert-Butyl-2-chloro-phenoxy)-propoxy]-2-ethyl-2,3-dihydro-benzofuran-2-carboxylic acid], a half-maximal effect (EC50) was put at 280 nM.
Turning to `CC(C)[C@@]1(C(=O)O)Cc2cc(OCCCOc3cc(C(F)(F)F)ccc3Cl)ccc2O1` [(R)-5-[3-(2-Chloro-5-trifluoromethyl-phenoxy)-propoxy]-2-isopropyl-2,3-dihydro-benzofuran-2-carboxylic acid], a half-maximal response (EC50) required 420 nM.
As to `CC(C)[C@@]1(C(=O)O)Cc2cc(OCCOc3ccc(OC(F)(F)F)cc3Cl)ccc2O1` [(R)-5-[2-(2-Chloro-4-trifluoromethoxy-phenoxy)-ethoxy]-2-isopropyl-2,3-dihydro-benzofuran-2-carboxylic acid], the EC50 (as a rule, the concentration needed to bring the measured effect to its halfway point) was 370 nM. This EC50 and that of the molecule before are within 1.5-fold of each other.
`CCC1(C(=O)O)Cc2cc(OCCCOc3ccc(OCC(F)(F)F)cc3Cl)ccc2O1` (centres undefined) [5-{3-[2-Chloro-4-(2,2,2-trifluoro-ethoxy)-phenoxy]-propoxy}-2-ethyl-2,3-dihydro-benzofuran-2-carboxylic acid] registered a half-maximal effective concentration (EC50) of 402 nM.

Values taken from BindingDB's records for doi:10.1021/jm050373g (Merck Research Laboratories, 2005).
